Entries after “also recorded” stand apart in the source; their conditions may differ.
Assay: Migration of fipronil from the gel formula into the container, by container material
Type: physicochemical
Method: When the products are formulated in a gel medium, they are often packaged in the forms of capsules, syringes, or adhesive strips. The packaging materials frequently contain plastics. […] Such plastics may include, but are not limited to, polystyrene/butadiene blend, polyethylene (PE) thermoformed, or PET/PE copolymer […].
Fipronil has a solubility in water around 0.002 g/l (20° C.). At a level of […], fipronil is soluble in the water-based matrix because its solubility in water is 0.002 g/l (20° C., BASF SDS). However, although being soluble in the formula, fipronil tends to migrate, under room temperature conditions and in high temperatures (tested up to 54° C.), into the container (i.e., plastic packaging) depending on the material that the container is made of: • a. […] PET/PE thermoformed→Migration • c. Polyethylene thermoform→Migration • d. Polyethylene injected→No migration • e. Polystyrene→No migration • f. Polystyrene/Butadiene (4%)→migration

Question: Which “Migration of fipronil into the container” value (container: Glass (used as reference), room temperature and high temperatures (tested up to 54° C.)) does the source give for `N#Cc1nn(-c2c(Cl)cc(C(F)(F)F)cc2Cl)c(N)c1[S+]([O-])C(F)(F)F` (stereo not drawn) [Fipronil, 1-[2,6-Cl2 4-CF3 phenyl] 3-CN 4-[SO—CF3] 5-NH2 pyrazole] here?
Answer: No migration, formula stable; also recorded: no fipronil migration

Question: And the “Migration of fipronil into the container” value (container: PET/PE thermoformed, room temperature and up to 54° C.)?
Answer: Migration

Question: What about the “Migration of fipronil into the container” value (container: Polyethylene injected, room temperature and up to 54° C.) of the same molecule?
Answer: No migration

Question: What about the “Migration of fipronil into the container” value (container: Polyethylene thermoform, room temperature and up to 54° C.) of the same molecule?
Answer: Migration

Question: What about the “Migration of fipronil into the container” value (container: Polystyrene/Butadiene (4%), room temperature and up to 54° C.) of the same molecule?
Answer: migration

Question: And the “Migration of fipronil into the container” value (container: Polystyrene, room temperature and up to 54° C.)?
Answer: No migration

— patent US12635691B2, “Fipronil containing insecticide gels” (Henkel AG & Co. KGaA, priority 2022, dated 2026)
